In patent publication US7183300B2, “Inhibitors of HIV-1 capsid formation: substituted aryl aminomethyl thiazole ureas and analogues thereof” (priority 2004, dated 2007):

Assays:
[1] = target: CA (Human immunodeficiency virus type 1 group M subtype B, UniProt P12493); experiment: mass action calculation of CAP-1 bound to CA/Gag in immature virions; design: species or system HIV-1
Method: This is likely due to the high local concentration of Gag molecules in assembled virions (14 mM), which favors binding by ligands with even modest affinities, e.g., N-(3-chloro-4-methylphenyl)-N′-[2-[([5-[(dimethylamino)-methyl]-2-furyl]-methyl)-sulfanyl]ethyl]urea (CAP-1).
Thus conservatively assuming that cytosolic drug concentrations in the budding virus and cells are equal (100 μM), the percentage of viral CAP-1 molecules bound to CA can be estimated by standard mass action calculations which affords a value for the concentration of bound CAP-1 ([CA:CAP-1]) of 94 μM.

[2] = target: T1, HIV-1 capsid protein (Human immunodeficiency virus type 1 group M subtype B, UniProt P12493); experiment: biochemical; type: binding
T1 construct: aqueous solutions containing recombinant, ^15N-labeled HIV-1 capsid protein
Method: Capsid protein ligands are also evaluated by NMR to determine their equilibrium dissociation constant from the capsid binding site.
Concentrated DMSO-d6 solutions of test compounds are prepared for NMR analysis. 2D ^1H-^15N HSQC NMR spectra are obtained for aqueous solutions containing recombinant, ^15N-labeled HIV-1 capsid protein and 10 microliters of added test compound. Data is obtained using a 600 MHz NMR instrument equipped with a cryoprobe. […] Binding is indicated by perturbation relative to capsid protein alone (^1HN δδ>0.1 ppm; ^15N δδ>0.5 ppm) of the chemical shifts of the following residues: Glu29, Lys30, Ala31, Phe32, Ser33, Glu35, Val36, Val59, Gly60, Gly61, His62, Gln63, Ala65, Met144 and Tyr145, all located at or near the apex of a helical bundle (helices 1, 2, 3, 4 and 7).
Equilibrium dissociation constants are calculated from 2D NMR data of selected capsid ligands. […] The chemical shift changes of perturbed by test compound binding are fit to 1:1 binding isotherms.

For `Cc1ccc(NC(=O)NCCSCc2ccc(CN(C)C)o2)cc1Cl` [CAP-1, N-(3-chloro-4-methylphenyl)-N′-[2-[([5-[(dimethylamino)-methyl]-2-furyl]-methyl)-sulfanyl]ethyl]urea], the “CAP-1 molecules in immature virions bound to Gag” value ([1]; 100 μM dose) was 94%, the “concentration of bound CAP-1 ([CA:CAP-1])” value ([1]; assuming drug concentration 100 μM, Gag in assembled virions 14 mM) was 94 µM and the Kd [2] was 820 ± 180 µM. The “binding to the HIV-1 capsid protein (HSQC chemical shift perturbation)” value ([2]; recombinant 15N-labeled HIV-1 capsid protein) was “site-specific binding”.
